This note sets out measurements from US4738975A, “Pyridine derivatives, and use as anti-ulcer agents” (Takeda Chemical Industries, Ltd., priority 1985, dated 1988).

In one data set the test system is gastric mucosa. The data set can be described thus: gastric mucosal injury induced by ethanol (action of protecting gastric mucosa). In kind it is in vivo, Male Sprague-Dawley rats. The conditions noted are these: Rattus norvegicus, po; 6 rats per group; doses 3, 10 and 30 mg/kg; 30 min before 1 ml of 100% ethanol; read-out: Action of protecting gastric mucosa ID50. The method, then: As a method of determining the ability to protect gastric mucosa, gastric mocosal injury induced by ethanol [Robert A., Gastroenterology 77, 761 (1979)] is often used. This method was applied to evaluation of the compounds of this invention. Male Sprague-Dawley rats 7-weeks old were fasted for 24 hours. These animals were administered test compounds into the stomach by using a gastric tube. After 30 minutes, 1 ml of 100% ethanol was administered orally. The animals were killed by carbon dioxide gas 60 minutes after ethanol administration. The stomach was removed together with the lower part of esophagus and the duodenum. The esophagus was clipped, 10 ml of 1% formalin solution was instilled into the stomach from the duodenum, and then the duodenum was clipped. The whole stomach was immersed in 1% formalin solution. About 15 minutes later, the stomachs were opened along the greater curvature. Length of the lesions which occurred in the gastric corpus mucosa was measured under a dissecting microscope with a square-grid eye piece (×10). The sum total length of the individual lesions in each animal was measured, and the average value per group was calculated. Based on the difference between the average value of each group and that of the control group, the inhibition rate was determined. The test compound was suspended in a 5% gum arabic solution, and administered in a volume of 2 ml/kg. | administered in a dose of 3, 10 and 30 mg/kg to determine ID50.

The nature of the next data set: oral toxicity in mice. The class given is in vivo. The conditions noted are these: oral administration, 500 mg/kg.

With `COc1ccnc(C[S+]([O-])c2nc3ccc(C(F)(F)F)cc3[nH]2)c1OC` (stereo not shown) [Example 9, 2-[(3,4-dimethoxypyrid-2-yl)methylsulfinyl]-5-trifluoromethylbenzimidazole], in the data set on gastric mucosa, the ED50 was determined as 3 mg/kg.
With `COc1ccnc(C[S+]([O-])c2nc3cc(C(F)(F)F)ccc3[nH]2)c1C` (stereo not shown) [5-CF3, CH3, CH3, H, reference compound], in the data set on gastric mucosa, the ED50 was 24 mg/kg.
The same measure, in the same setting: to `COc1ccc2[nH]c([S+]([O-])Cc3ncc(C)c(OC)c3C)nc2c1` (stereo not shown) [5-OCH3, CH3, CH3, CH3, reference compound] belongs 22 mg/kg.
On to `COc1ccnc(C[S+]([O-])c2nc3ccccc3[nH]2)c1OC` (stereo not shown) [Example 6, 2-[(3,4-dimethoxypyrid-2-yl)methylsulfinyl]benzimidazole], for which the ED50 in the data set on gastric mucosa came to 3.2 mg/kg. Besides, in “oral toxicity in mice”, the fatal effect result is on record as “no fatal effect”.
Consider `COc1c(OCC(F)(F)F)ccnc1C[S+]([O-])c1nc2ccccc2[nH]1` (stereo not shown) [Example 18, 2-[[3-methoxy-4-(2,2,2-trifluoroethoxy)pyrid-2-yl]methylsulfinyl]benzimidazole], for which, in the data set on gastric mucosa, the ED50 came to 6.2 mg/kg. Also, in the data set “oral toxicity in mice”, the fatal effect entry is “no fatal effect”.
